Data as given in PubChem BioAssay (NCI).
Where “and” joins values, the source holds several entries; their conditions need not be identical. Equal entries are not always repeated.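 48-hour exposure; five concentrations; linearly interpolated endpoints. Here, GI50 denotes the concentration required for 50% inhibition of growth. TGI: concentration producing complete growth inhibition.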

Tests used:
Experiment in all cases: NCI tumour cell line growth inhibition, 48 h
M14 melanoma = test system: M14 melanoma
UO-31 renal = test system: UO-31 renal
SR leukemia = test system: SR leukemia
OVCAR-8 ovarian = test system: OVCAR-8 ovarian
HOP-62 NSCLC = test system: HOP-62 NSCLC
OVCAR-5 ovarian = test system: OVCAR-5 ovarian
SN12C renal = test system: SN12C renal
EKVX NSCLC = test system: EKVX NSCLC
SK-MEL-2 melanoma = test system: SK-MEL-2 melanoma
RPMI-8226 leukemia = test system: RPMI-8226 leukemia

SMILES | GI50 (M14 melanoma) | TGI (M14 melanoma) | GI50 (UO-31 renal) | TGI (UO-31 renal) | GI50 (SR leukemia) | TGI (SR leukemia) | GI50 (OVCAR-8 ovarian) | TGI (OVCAR-8 ovarian) | GI50 (HOP-62 NSCLC) | TGI (HOP-62 NSCLC) | GI50 (OVCAR-5 ovarian) | TGI (OVCAR-5 ovarian) | GI50 (SN12C renal) | TGI (SN12C renal) | GI50 (EKVX NSCLC) | TGI (EKVX NSCLC) | GI50 (SK-MEL-2 melanoma) | TGI (SK-MEL-2 melanoma) | GI50 (RPMI-8226 leukemia) | TGI (RPMI-8226 leukemia)
NC(N)=N/N=C/c1c(-c2ccccn2)nc2sc(Cl)cn12 | 7.6 µM | 15.9 µM | 7.85 µM | 14.8 µM | 0.845 µM | 3.05 µM | 6.32 µM | 13.5 µM | 9.58 µM | 17.5 µM | 6.3 µM | 12.6 µM | 6.84 µM | 13.3 µM | 8.95 µM | 16.1 µM | 7.93 µM | 15.1 µM | 11.5 µM | 29 µM
Cc1ccc([N+](=O)[O-])c2c(NCCCN(C)C)ccnc12 | – | > 100 µM | – | > 100 µM | – | > 100 µM | – | > 100 µM | – | > 100 µM | – | > 100 µM | – | > 100 µM | – | > 100 µM | – | > 100 µM | – | > 100 µM
COCC(=O)OC1CCn2c1nc1c2C(=O)C(C)=C(NC(C)=O)C1=O (stereo unspecified) | – | 21.7 µM | – | 26.2 µM | 2.52 µM | 5.17 µM and 12.5 µM | 2.92 µM | 12 µM | – | 41.1 µM | 5.91 µM | 21.6 µM | 4.62 µM | 18.9 µM | 3.75 µM | 20.3 µM | 5.34 µM | 13.5 µM | – | 4.76 µM and 9.5 µM
CNC(=O)c1cc(Oc2ccc(NC(=O)Nc3ccc(Cl)c(OC(F)(F)F)c3)c(F)c2)ccn1 | 1.02 µM | 5.38 µM | 1.07 µM | 13.3 µM | 1.49 µM | 7.99 µM | – | – | 2.49 µM | 29.3 µM | 3.93 µM | > 33.2 µM | 2.05 µM | 23 µM | 1.55 µM | 23.6 µM | 1.03 µM | 5.86 µM | 1.32 µM | 7.85 µM
CS(=O)(=O)Nc1ccc(-c2ccc3c(NC(=O)C4CC4)n[nH]c3c2)cc1 | 24.9 µM | > 25 µM | > 25 µM | > 25 µM | > 21.2 µM | > 25 µM | > 25 µM | > 25 µM | > 25 µM | > 25 µM | > 25 µM | > 25 µM | > 25 µM | > 25 µM | > 25 µM | > 25 µM | > 18.5 µM | > 25 µM | 13.7 µM | > 25 µM
CCOc1cccc2nc3cccc(C(=O)NCCN(C)C)c3nc12 | – | 6.04 µM | – | > 100 µM | – | 26.1 µM | – | > 20.4 µM | – | 2.18 µM | – | 5.28 µM | – | 3.59 µM | – | 11.6 µM | – | 3.86 µM | – | 6.46 µM
CCOC(=O)Cc1nc(/C(C#N)=C/c2ccco2)[nH]c(=O)c1C#N | – | > 100 µM | – | > 100 µM | – | > 100 µM | – | > 100 µM | – | > 100 µM | – | > 100 µM | – | > 100 µM | – | > 100 µM | – | > 100 µM | – | > 100 µM
CC(=O)[CH-]C(C)=O.CC(=O)[CH-]C(C)=O.N=CC=N.[Sn+2] | 2.41 µM | 5.7 µM | 9 µM | 21.1 µM | 1.06 µM | 5.3 µM | 2.11 µM | 4.74 µM | 19.3 µM | 33.9 µM | 7.29 µM | 19.2 µM | 2.9 µM | 9.14 µM | 6.42 µM | 19.4 µM | 3.46 µM | 11.2 µM | 1.48 µM | 4.38 µM
NS(=O)(=O)c1ccc(NC(=O)c2cccc3c(=O)c4ccccc4[nH]c23)cc1 | – | > 100 µM | – | 67.8 µM | – | > 100 µM | – | > 100 µM | – | > 100 µM | – | > 100 µM | – | > 100 µM | – | > 100 µM | – | > 100 µM | – | > 100 µM
Cn1c(N)nc2c(nc(OCc3ccccc3)n2C2OC(CO)C(O)C2O)c1=O (stereo unspecified) | – | > 100 µM | – | > 100 µM | – | > 100 µM | – | > 100 µM | – | > 100 µM | – | > 100 µM | – | > 100 µM | – | > 100 µM | – | > 100 µM | – | > 100 µM
COc1cc(/C=C2\CC3C4CC=C5CC(N6CCCC6)CC[C@]5(C)C4CC[C@]3(C)C2OC(C)=O)ccc1OCCN1CCCC1 (stereo partly specified) | 1.89 µM | 3.41 µM | 1.86 µM | 3.35 µM | 1.83 µM | 4.01 µM | – | – | 19.7 µM | 34.6 µM | 3.01 µM | 7.09 µM | 4.01 µM | 15.7 µM | 3.41 µM | 13.4 µM | 2.09 µM | 3.7 µM | 1.67 µM | 3.82 µM
CNC(=O)c1cn(C[C@H](F)CCc2ccc(NC(=O)Cc3cc(OC4CC(F)(F)C4)cc(C)n3)nn2)nn1 | > 100 µM | > 100 µM | > 100 µM | > 100 µM | > 81.8 µM | > 100 µM | > 100 µM | > 100 µM | > 100 µM | > 100 µM | > 100 µM | > 100 µM | – | > 100 µM | > 100 µM | > 100 µM | > 100 µM | > 100 µM | 5.65 µM | > 100 µM
CCCNCc1cc(C)cc2c1nc(N1CCNCC1)n2Cc1cc(C)c(F)c(C)c1 | 1.86 µM | 3.47 µM | 13.2 µM | 27.3 µM | 1.22 µM | 3.39 µM | 3.9 µM | 13.8 µM | 17 µM | 32.2 µM | 7.58 µM | 22.3 µM | 7.57 µM | 21.6 µM | 9.56 µM | 22.6 µM | 14.1 µM | 28.1 µM | 2.09 µM | 5.29 µM
CC(=O)O[C@H]1C(=O)[C@@]2(C)[C@H]([C@H](OC(=O)c3ccccc3)[C@]3([O-])C[C@H](OC(=O)[C@H]([O-])[C@@H](NC(=O)c4ccccc4)c4ccccc4)C(C)=C1C3(C)C)[C@]1(OC(C)=O)CO[C@@H]1C[C@@H]2[O-].[Fe+3] | 0.11 µM and 0.0637 µM | 0.491 µM and 0.391 µM | 4.45 µM and 4.87 µM | 65 µM and > 100 µM | 0.0268 µM and 0.199 µM | – | 0.0971 µM and 0.0721 µM | 15.5 µM and 27.3 µM | – | 10.5 µM and 48.8 µM | 0.88 µM | 11.1 µM and > 100 µM | – | 65 µM and > 100 µM | – | 65 µM and > 100 µM | 0.11 µM and 0.161 µM | – | 0.0294 µM and 0.074 µM | 65 µM and > 100 µM
CC(C)(C)c1nc2c(o1)C(=Nc1ccc(F)cc1)c1ccccc1C2=O | – | 9.35 µM | – | 28.1 µM | – | > 100 µM | – | > 61.2 µM | – | 32.4 µM | – | 34.3 µM | – | 23.8 µM | – | > 83.5 µM | – | 8.03 µM | – | > 100 µM
